What all share (type): cell-based
Assay [1] relates to mouse macrophages (RAW264.7). The experiment in a line: Lipopolysaccharide-induced NO secretion in macrophages (Griess). The note with it: Mus musculus, RAW264.7, 24 h, RAW264.7, LPS 1 μg/ml, a/b isomers given as first/second symbol, read-out: IC50 (μM), inhibition of lipopolysaccharide-induced NO secretion in macrophages. A digest of the protocol:
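Indomethacin and resveratrol served as positive controls while compounds were tested across concentrations on LPS-stimulated (1 μg/ml, 24 h) RAW264.7 cells. NO output was quantified colorimetrically (Griess, 548 nm).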
(In general: Griess reagent forms a coloured azo dye with nitrite.)

In assay [2] the test system is human dermal fibroblasts CCC-ESF-1. The experiment in a line: Anti-fibrosis activity test: inhibition of proliferation of human dermal fibroblasts CCC-ESF-1 (CCK-8). As to conditions: Fibroblast; human dermal fibroblasts CCC-ESF-1, CCK-8, 48 hours. In short, it runs like this:
(§1)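 Proliferation inhibition is measured by CCK-8 after cells plated at 2×10^4 cells/mL attach overnight (24 h) and then receive test compounds for 48 h at several concentrations, each in triplicate. Optical density at 450 nm gives IR = (1−Ai/Ao)×100%, from which IC50 is computed.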

The subject of assay [3] is cardiac fibroblast RAT-iCell-C002. Description: Anti-fibrosis activity test: inhibition of proliferation of cardiac fibroblast RAT-iCell-C002 (CCK-8). The note with it: Cardiac fibroblast, 48 h, cardiac fibroblast RAT-iCell-C002, CCK-8, 48 hours. A digest of the protocol: as §1
For assay [4], the system named is human hepatic stellate cells LX-2. The experiment in a line: Anti-fibrosis activity test: inhibition of proliferation of human hepatic stellate cells LX-2 (CCK-8). As to conditions: Homo sapiens, 48 h, human hepatic stellate cells LX-2, CCK-8, 48 hours. In short, it runs like this: as §1
Assay [5] has as its system human lung fibroblasts HFL1. The experiment in a line: Anti-fibrosis activity test: inhibition of proliferation of human lung fibroblasts HFL1 (CCK-8). As to conditions: Homo sapiens, HFL1, 48 h, human lung fibroblasts HFL1, CCK-8, 48 hours. In short, it runs like this: as §1
Assay [6] relates to BHK-21 cells. The experiment in a line: Anti-fibrosis activity test: inhibition of BHK-21 cell proliferation (CCK-8). The note with it: Mesocricetus auratus, BHK-21, 48 h, CCK-8, 48 hours after administration. A digest of the protocol: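 Proliferation inhibition was read as CCK-8 absorbance at 450 nm (2-hour development) relative to untreated blank, with IC50 fitted from the curve. Before that, adhered cells (2×10^4 cells/mL, 24 hours) had 48 hours' treatment at several concentrations, in triplicate, at 37° C/5% CO2; pirfenidone was the reference.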

For assay [7], the system named is human embryonic lung fibroblast IMR-90. Description: Anti-fibrosis activity test: inhibition of proliferation of human embryonic lung fibroblast IMR-90 (CCK-8). As to conditions: human embryonic lung fibroblast IMR-90, CCK-8, 48 hours. A digest of the protocol: as §1
The test system of assay [8] is human fibrosarcoma cells HT-1080. The experiment in a line: Anti-fibrosis activity test: inhibition of proliferation of human fibrosarcoma cells HT-1080 (CCK-8). As to conditions: Homo sapiens, HT-1080, 48 h, human fibrosarcoma cells HT-1080, CCK-8, 48 hours. A digest of the protocol:
as §1

Regarding `O=C1c2c(nc3c(F)c(N4CCNCC4)ccc3c2OCc2ccc(Cl)cc2)-c2cccn21` [Compound 484b, 9-((4-chlorobenzyl)oxy)-5-fluoro-6-(piperazin-1-yl)-10H-pyrrolizino[1,2-b]quinolin-10-one], the IC50 (in general, the point on the concentration scale where inhibition reaches its midpoint) in assay [1] lay in the range of 1 to 10 µM; in assay [2], 0.05 to 5 mM; in assay [3] it was 0.05 to 5 mM; in assay [4], 0.05 to 5 mM; in assay [5] it was 0.05 to 5 mM; in assay [6] it was 0.05 to 5 mM. Also, the IC50 in assay [7] and in assay [8] was 0.05 to 5 mM in each case.
For the molecule `O=C1c2c(n(Cc3ccc(F)cc3)c3c(F)c(N4CCNCC4)ccc3c2=O)-c2cccn21` [Compound 485a, 5-Fluoro-4-(4-fluorobenzyl)-6-(piperazin-1-yl)-9H-pyrrolizino[1,2-b]quinoline-9,10(4H)-dione], the IC50 in assay [1] lay in the range of 10 to 50 µM; in assay [2] it was 0.05 to 5 mM; in assay [3], 0.05 to 5 mM; in assay [4], 0.05 to 5 mM; in assay [5] it was 0.05 to 5 mM; in assay [6], 0.05 to 5 mM. The IC50 in assay [7] and in assay [8] was 0.05 to 5 mM throughout.
In the case of `O=C1c2c(nc3c(F)c(N4CCNCC4)ccc3c2OCc2ccc(F)cc2)-c2cccn21` [Compound 485b, 5-fluoro-9-((4-fluorobenzyl)oxy)-6-(piperazin-1-yl)-10H-pyrrolizino[1,2-b]quinolin-10-one], the IC50 in assay [1] is 1 to 10 µM; in assay [2], 0.05 to 5 mM; in assay [3] it was 0.05 to 5 mM; in assay [4], 0.05 to 5 mM; in assay [5], 0.05 to 5 mM; in assay [6], 0.05 to 5 mM. In addition, the IC50 in assay [7] and in assay [8] was 0.05 to 5 mM each time.
Consider `O=C1c2c(n(Cc3ccc(F)cc3)c3cc(F)ccc3c2=O)-c2cccn21` [Compound 490a, 6-Fluoro-4-(4-fluorobenzyl)-9H-pyrrolizino[1,2-b]quinoline-9,10(4H)-dione], for which the IC50 in assay [1] was 10 to 50 µM; in assay [2], 0.05 to 5 mM; in assay [3] it was less than 0.05 mM; in assay [4], 0.05 to 5 mM; in assay [5], 0.05 to 5 mM; in assay [6], 0.05 to 5 mM. For the same molecule, the IC50 in assay [7] and in assay [8] was 0.05 to 5 mM in each case.
For `O=C1c2c(nc3cc(F)ccc3c2OCc2ccc(F)cc2)-c2cccn21` [Compound 490b, 6-fluoro-9-((4-fluorobenzyl)oxy)-10H-pyrrolizino[1,2-b]quinolin-10-one], the IC50 lay within 1 to 10 µM in assay [1]; 0.05 to 5 mM in assay [2]; 0.05 to 5 mM in assay [3]; 0.05 to 5 mM in assay [4]; 0.05 to 5 mM in assay [5]; 0.05 to 5 mM in assay [6]. The IC50 in assay [7] and in assay [8] was 0.05 to 5 mM throughout.
Take `O=C1c2c(n(Cc3cccc(F)c3)c3cc(F)ccc3c2=O)-c2cccn21` [Compound 491a, 6-Fluoro-4-(3-fluorobenzyl)-9H-pyrrolizino[1,2-b]quinoline-9,10(4H)-dione]: the IC50 in assay [1] is 10 to 50 µM; in assay [2] it was 0.05 to 5 mM; in assay [3], 0.05 to 5 mM; in assay [4] it was 0.05 to 5 mM; in assay [5], 0.05 to 5 mM; in assay [6] it was less than 0.05 mM. In addition, the half-maximal inhibitory concentration (IC50) in assay [7] and in assay [8] was 0.05 to 5 mM in each case.
Turning to `O=C1c2c(nc3cc(F)ccc3c2OCc2cccc(F)c2)-c2cccn21` [Compound 491b, 6-fluoro-9-((3-fluorobenzyl)oxy)-10H-pyrrolizino[1,2-b]quinolin-10-one], the IC50 in assay [1] was 1 to 10 µM; in assay [2], 0.05 to 5 mM; in assay [3], 0.05 to 5 mM; in assay [4], 0.05 to 5 mM; in assay [5], 0.05 to 5 mM; in assay [6], 0.05 to 5 mM. Further, the IC50 in assay [7] and in assay [8] was 0.05 to 5 mM throughout.
In the case of `O=C1c2c(n(Cc3cccc(Cl)c3)c3cc(F)ccc3c2=O)-c2cccn21` [Compound 497a, 4-(3-Chlorobenzyl)-6-fluoro-9H-pyrrolizino[1,2-b]quinoline-9,10(4H)-dione], the IC50 in assay [1] was 0.1 to 1 µM; in assay [2] it was 0.05 to 5 mM; in assay [3], less than 0.05 mM; in assay [4] it was 0.05 to 5 mM; in assay [5], 0.05 to 5 mM; in assay [6], 0.05 to 5 mM. Besides, the IC50 in assay [7] and in assay [8] was 0.05 to 5 mM each time.
Take `O=C1c2c(nc3cc(F)ccc3c2OCc2cccc(Cl)c2)-c2cccn21` [Compound 497b, 9-((3-chlorobenzyl)oxy)-6-fluoro-10H-pyrrolizino[1,2-b]quinolin-10-one]: the IC50 was in the range of 1 to 10 µM in assay [1]; 0.05 to 5 mM in assay [2]; 0.05 to 5 mM in assay [3]; 0.05 to 5 mM in assay [4]; 0.05 to 5 mM in assay [5]; 0.05 to 5 mM in assay [6]. Besides, the IC50 in assay [7] and in assay [8] was 0.05 to 5 mM throughout.
On to `O=C1c2c([nH]c3cc(Cl)ccc3c2=O)-c2cccn21` [Compound 500a, 6-Chloro-9H-pyrrolizino[1,2-b]quinoline-9,10(4H)-dione], for which the IC50 is 0.1 to 1 µM in assay [1]; 0.05 to 5 mM in assay [2]; 0.05 to 5 mM in assay [3]; less than 0.05 mM in assay [4]; 0.05 to 5 mM in assay [5]; 0.05 to 5 mM in assay [6]. Also, the IC50 in assay [7] and in assay [8] was 0.05 to 5 mM each time.
With `O=C1c2c(nc3cc(Cl)ccc3c2O)-c2cccn21` [Compound 500b, 6-chloro-9-hydroxy-10H-pyrrolizino[1,2-b]quinolin-10-one], the IC50 was in the range of 1 to 10 µM in assay [1]; 0.05 to 5 mM in assay [2]; 0.05 to 5 mM in assay [3]; 0.05 to 5 mM in assay [4]; 0.05 to 5 mM in assay [5]; 0.05 to 5 mM in assay [6]. In addition, the IC50 in assay [7] and in assay [8] was 0.05 to 5 mM in each case.
Turning to `O=C1c2c(n(Cc3ccc(F)cc3)c3cc(Cl)ccc3c2=O)-c2cccn21` [Compound 502a, 6-Chloro-4-(4-fluorobenzyl)-9H-pyrrolizino[1,2-b]quinoline-9,10(4H)-dione], the IC50 in assay [1] is 1 to 10 µM; in assay [2], 0.05 to 5 mM; in assay [3], less than 0.05 mM; in assay [4] it was 0.05 to 5 mM; in assay [5], 0.05 to 5 mM; in assay [6], 0.05 to 5 mM. Further, the IC50 in assay [7] and in assay [8] was 0.05 to 5 mM throughout.
On to `O=C1c2c(nc3cc(Cl)ccc3c2OCc2ccc(F)cc2)-c2cccn21` [Compound 502b, 6-chloro-9-((4-fluorobenzyl)oxy)-10H-pyrrolizino[1,2-b]quinolin-10-one], for which the IC50 fell in the range of 1 to 10 µM in assay [1]; 0.05 to 5 mM in assay [2]; 0.05 to 5 mM in assay [3]; 0.05 to 5 mM in assay [4]; 0.05 to 5 mM in assay [5]; 0.05 to 5 mM in assay [6]. Moreover, the IC50 in assay [7] and in assay [8] was 0.05 to 5 mM in each case.
Regarding `O=C1c2c(n(Cc3ccccc3F)c3cc(Cl)ccc3c2=O)-c2cccn21` [Compound 504a, 6-Chloro-4-(2-fluorobenzyl)-9H-pyrrolizino[1,2-b]quinoline-9,10(4H)-dione], the IC50 is 1 to 10 µM in assay [1]; 0.05 to 5 mM in assay [2]; 0.05 to 5 mM in assay [3]; 0.05 to 5 mM in assay [4]; 0.05 to 5 mM in assay [5]; less than 0.05 mM in assay [6]. The IC50 in assay [7] and in assay [8] was 0.05 to 5 mM throughout.
